# Measured values taken from patent US11091490B2, “3-amino-1,5-dihydro-pyrazolo[3,4-d]pyrimidin-4-ones as cyclin dependent kinase inhibitors” (Oncotyrol Center for Personalized Cancer Medicine GMBH, priority 2016, dated 2021).
# Read-outs that look alike come from different tables or passages of the source.
# Assays:
# Solubility in water = assay type: physicochemical
# Excerpt: The water solubility of preferred compound 86 and the compound of Example 49 of WO 02/967654 A2 have been compared.
# [1] = biological target: human ether-a-go-go-related gene (hERG)-encoded K+ channel (Homo sapiens, UniProt Q12809); assay: Medium-throughput electrophysiology based hERG assay; assay type: cell-based
# Excerpt: In a medium-throughput electrophysiology based hERG assay carried out in accordance with Bridgland-Taylor M H et al., J Pharmacol Toxicol Methods. 2006 September-October; 54(2):189-99. Epub 2006 Mar. 6.
# most CYP enzymes = assay: Drug-drug interactions: CYP inhibition; assay type: in vitro ADME
# Excerpt: In assays carried out in accordance with the “Guideline on the investigation of drug interactions”, CPMP/EWP/560/95/Rev. 1 Corr. 2, European Medicines Agency, Committee for Human Medicinal Products (CHMP) and “Guidance for Industry, Drug Interaction Studies—Study Design, Data Analysis, Implications for Dosing, and Labeling Recommendations”, U.S. Department of Health and Human Services.
# NCI-H929/GN2 = assay: Multiple myeloma cells in mono- and co-culture with osteoblasts, imaging based detection (NCI-H929); assay type: cell-based
# Description: Compound 86 has been compared with the key compound of WO 2000/21926 A2 (Example 121) in an imaging based detection system.
# Two different multiple myeloma (MM) cell lines (RPMI-8226 (DSMZ, ACC 402), NCI-H929 DSMZ, ACC 163) have been used and were cultured in mono- and co-culture with osteoblasts (OB) (Osteoblasts were obtained by culturing hMSCs with a differentiation inducing medium for two weeks) in accordance with the method of Karadag A. et al. Journal of Bone and Mineral Research Vol. 15, No. 10, 2000 page 1935-43.
# BXPC3 (pancreas) = assay: In vitro proliferation screening (Sulforhodamin B) BXPC3; assay type: cell-based, human; conditions: BXPC3, 72 h
# Excerpt: (§1) In order to evaluate the antitumor activity of the compounds of the present invention, in particular compound 86, in solid tumors, an in vitro proliferation screening in a panel of 10 different human cancer cell lines derived from solid tumors (see Table 5, below) as a model system.
# (§2) Six 10-fold dilutions of compound 86 have been prepared in DMSO, from 5×10^−9 M to 5×10^−4. Single data points have been tested for each concentration. The final concentration of DMSO was 0.1%. The duration of the treatment was 72 hours. The growth inhibition was measured by using Sulforhodamin B, a protein-staining assay in accordance with Vichai V et. al. Nat. Protoc. 2006; 1(3):1112-6. Activity of the agents was determined by evaluating the following parameters: IC50, GI50, IC10, GI10, TGI, LC50, IC90 and GI90 (if these values could be calculated).
# HCT116 (colon) = assay: In vitro proliferation screening (Sulforhodamin B) HCT116; assay type: cell-based, human; conditions: HCT116, 72 h
# Excerpt: as §1, §2
# NCIH82 (lung) = assay: In vitro proliferation screening (Sulforhodamin B) NCIH82; assay type: cell-based; conditions: Homo sapiens, NCI-H82; NCIH82, 72 h; unit M
# Excerpt: as §1, §2
# SKNAS (brain) = assay: In vitro proliferation screening (Sulforhodamin B) SKNAS; assay type: cell-based; conditions: Homo sapiens, SK-N-AS, 72 h, unit M
# Excerpt: as §1, §2
# U2OS (bone) = assay: In vitro proliferation screening (Sulforhodamin B) U2OS; assay type: cell-based, human; conditions: 72 h
# Excerpt: as §1, §2
# [2] = test system: LP-1 multiple myeloma cells; assay: Cell cycle analysis (propidium iodide FACS) LP1; assay type: cell-based
# Excerpt: (§3) In order to investigate the mode of action (MOA) related to the antitumor activity of the compounds of the present invention (in particular compound 86) in solid tumors and multiple myeloma, two experimental strategies were used to confirm the postulated MOA: 1) monitoring of apoptosis induction and 2) cell cycle analysis upon treatment with compound 86. Three cancer cell lines (LP-1, (multiple myeloma cells, DSMZ ACC 41), A375 (melanoma cells), and HeLa (cervix carcinoma cells)) as well as control cells (HS-5 bone marrow stroma cells, ATCC CRL-11882) were used to obtain mechanistic insight into the antitumor activity of compound 86.
# (§4) Measuring of DNA content in cells is a well-established method for monitoring cell proliferation, cell cycle, fragmentation of nuclei (apoptosis) and DNA ploidy. Proliferating cells progress through various phases of the cell cycle (G0, G1, S, G2, and M phase). At different stages of the cell cycle and life cycle, cell nuclei contain different amounts of DNA. The DNA content in cell nuclei was analyzed by propidium iodide (PI) staining and FACS analysis after 12 and 24 h of treatment with 100 nM of compound 86 in accordance with the method of Desai Brijal M. et. al. PLOS Vol. 8; Issue 3; p. 1-11, 2013.
# A375 melanoma cells [3] = assay: Cell cycle analysis (propidium iodide FACS) A375; assay type: cell-based
# Excerpt: as §3, §4
# A375 melanoma cells [4] = assay: PARP cleavage Western blot A375; assay type: cell-based; conditions: A375, 24 h, 100 nM, FIG. 1B legend 0.08 μM
# Excerpt: as §3
# (§5) Annexin V staining and Poly(ADP-ribose)-Polymerase 1 (PARP) protein cleavage was analyzed to identify a pro-apoptotic effect of compound 86 on tumor cells in accordance with the method of Koopman G, et. al. Blood 1994; 1; 84(5):1415-20. Annexin V allows the identification of cell surface changes that occur early during the apoptotic process by in situ detection, which is ideal for the analysis with adherent cells. Cleavage of PARP-1 by caspases is considered to be a hallmark of apoptosis and was therefore applied to monitor apoptosis induction after 24 h of treatment with 100 nM of compound 86.
# [5] = test system: HeLa cervix carcinoma cells; assay: PARP cleavage Western blot HeLa; assay type: cell-based; conditions: 24 h, 100 nM, FIG. 1B legend 0.08 μM
# Excerpt: as §3, §5
# [6] = test system: HeLa cervix carcinoma cells; assay: Annexin V/PI staining HeLa; assay type: cell-based; conditions: 0.1 μM, 12 h and 24 h
# Excerpt: as §3, §5
# Sequence of human ether-a-go-go-related gene (hERG)-encoded K+ channel (Q12809 whole entry): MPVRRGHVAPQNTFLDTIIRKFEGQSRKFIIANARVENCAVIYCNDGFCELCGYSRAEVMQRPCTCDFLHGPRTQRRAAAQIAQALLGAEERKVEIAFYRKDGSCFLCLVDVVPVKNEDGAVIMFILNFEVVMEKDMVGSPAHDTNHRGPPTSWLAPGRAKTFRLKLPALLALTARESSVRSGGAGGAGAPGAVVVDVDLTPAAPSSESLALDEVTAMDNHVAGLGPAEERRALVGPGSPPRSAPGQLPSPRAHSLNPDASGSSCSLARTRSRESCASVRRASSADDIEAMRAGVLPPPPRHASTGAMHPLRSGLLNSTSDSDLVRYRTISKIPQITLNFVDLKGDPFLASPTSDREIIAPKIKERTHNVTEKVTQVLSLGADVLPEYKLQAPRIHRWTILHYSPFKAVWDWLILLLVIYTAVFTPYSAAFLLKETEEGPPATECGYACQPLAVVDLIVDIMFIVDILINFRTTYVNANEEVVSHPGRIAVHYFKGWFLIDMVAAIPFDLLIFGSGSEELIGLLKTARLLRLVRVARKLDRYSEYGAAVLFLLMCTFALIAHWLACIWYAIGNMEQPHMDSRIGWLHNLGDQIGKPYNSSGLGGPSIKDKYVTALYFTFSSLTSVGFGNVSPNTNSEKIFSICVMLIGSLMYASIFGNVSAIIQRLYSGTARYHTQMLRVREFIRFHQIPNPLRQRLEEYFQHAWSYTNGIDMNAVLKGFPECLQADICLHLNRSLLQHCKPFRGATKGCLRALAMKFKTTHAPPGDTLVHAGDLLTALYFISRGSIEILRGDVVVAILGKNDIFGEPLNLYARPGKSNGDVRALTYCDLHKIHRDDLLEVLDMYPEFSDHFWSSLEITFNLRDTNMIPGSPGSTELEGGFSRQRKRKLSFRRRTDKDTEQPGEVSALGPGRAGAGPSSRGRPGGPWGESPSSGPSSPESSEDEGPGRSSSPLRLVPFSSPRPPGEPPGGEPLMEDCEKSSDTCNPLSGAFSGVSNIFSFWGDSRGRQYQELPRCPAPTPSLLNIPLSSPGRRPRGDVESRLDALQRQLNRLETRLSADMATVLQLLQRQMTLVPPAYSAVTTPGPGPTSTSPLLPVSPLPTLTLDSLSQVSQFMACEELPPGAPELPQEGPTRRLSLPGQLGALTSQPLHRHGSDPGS
structure (smiles),measurement,setting,value
"CCN(CC)CC(=O)Nc1ccc(Cc2nc3c(c(N(C)C)nn3-c3c(Cl)cc(S(N)(=O)=O)cc3Cl)c(=O)[nH]2)cc1 [Compound 86, N-{4-[1-(2,6-Dichloro-4-sulfamoyl-phenyl)-3-dimethylamino-4-oxo-4,5-dihydro-1H-pyrazolo[3,4-d]pyrimidin-6-ylmethyl]-phenyl}-2-diethylamino-acetamide]",solubility,"Solubility in water; aqueous buffer, pH 2.0, read-out: Solubility in water at pH 2.0",129 µM
same,solubility,"Solubility in water; pH 7.4, aqueous buffer, read-out: Solubility in water at pH 7.4",105 µM
same,inhibitory activity on hERG K+ channel,[1],did not display any inhibitory activity
same,inhibitory activity of most CYP enzymes,most CYP enzymes,only weak inhibitory activity
same,EC50,"NCI-H929/GN2; Homo sapiens, NCI-H929, NCI-H929/GN2, co-culture with osteoblasts, read-out: co-culture (+ OB) EC50",72 nM
same,EC50,"NCI-H929/GN2; Homo sapiens, NCI-H929, NCI-H929/GN2, mono-culture, read-out: mono-culture EC50",62 nM
same,EC50,"NCI-H929/GN2; NCI-H929/GN2, co-culture with osteoblasts, read-out: co-culture (+ OB) EC50",68 nM
same,EC50,"NCI-H929/GN2; NCI-H929/GN2, mono-culture, read-out: mono-culture EC50",55 nM
same,growth inhibitory response in words,BXPC3 (pancreas),growth inhibition in the middle nanomolar range
same,GI50,"BXPC3 (pancreas); Homo sapiens, BXPC-3, unit M",36.3 nM
same,IC50,"BXPC3 (pancreas); Homo sapiens, BXPC-3, unit M",41.8 nM
same,GI50,HCT116 (colon); unit M,5.82 nM
same,GI50,"HCT116 (colon); Homo sapiens, HCT-116, 72 h, rounded value of the conclusions",5.8 nM
same,GI50,"HCT116 (colon); Homo sapiens, HCT-116, 72 h, unit M",5.82 nM
same,IC50,"HCT116 (colon); Homo sapiens, HCT-116, unit M",6.05 nM
same,GI50,NCIH82 (lung),16.5 nM
same,IC50,NCIH82 (lung),21.3 nM
same,GI50,SKNAS (brain),41.2 nM
same,IC50,SKNAS (brain),74.3 nM
same,growth inhibitory response in words,U2OS (bone),responded rather weakly in the micromolar range
same,GI50,"U2OS (bone); Homo sapiens, unit M",94.2 nM
same,IC50,"U2OS (bone); Homo sapiens, unit M",103 nM
same,cell cycle profile (DNA content),"[2]; LP1, 0.1 μM, 12 and 24 h (FIG. 1A)",cell cycle defects and a progressive enrichment of the sub G1 group
same,cell cycle profile (DNA content),"[2]; LP1, 100 nM, 12 h",strong enrichment of nuclei in the sub_G1 fraction
same,cell cycle profile (DNA content),"[2]; LP1, 100 nM, 24 h",almost all intact nuclei of LP1 cells disappeared
same,cell cycle profile (DNA content),"A375 melanoma cells [3]; A375, 0.1 μM, 12 and 24 h (FIG. 1A)",cell cycle defects and a progressive enrichment of the sub G1 group
same,cell cycle profile (DNA content),"A375 melanoma cells [3]; A375, 100 nM, 12 h",G2/M arrest
same,cell cycle profile (DNA content),"A375 melanoma cells [3]; A375, 100 nM, 24 h",started to enrich in the sub_G1 fraction
same,PARP cleavage,A375 melanoma cells [4],specific induction of PARP cleavage
same,PARP cleavage,A375 melanoma cells [4]; listed as Otviciclib,induction of PARP cleavage
same,PARP cleavage,[5],specific induction of PARP cleavage
same,PARP cleavage,[5]; listed as Otviciclib,induction of PARP cleavage
same,induction of apoptosis (Annexin V/PI staining),[6],specific induction of apoptosis
same,induction of apoptosis (Annexin V/PI staining),[6]; listed as Otviciclib,reproducible induction of apoptosis
